Measurements as given in patent publication US20230081426A1, “COMPOUNDS AND METHODS FOR KRAS MODULATION AND INDICATIONS THEREFOR” (Plexxikon Inc., priority 2020, published 2023).

How the values were obtained:
[1] = target: T1, G12D-mutant human KRAS (amino acid residues 1-188) (Homo sapiens, UniProt P01116, G12D); test: KRAS Binding Disruption Assay (AlphaScreen; biotinylated KRpep-2d analogue or RAF1-RBD), G12D; details: KRAS G12D; geometric mean; read-out: KRAS GMean IC50 (uM) MUTATION: G12D
T1 construct: G12D or G12C-mutant human KRAS (amino acid residues 1-188) with FLAG tag; made in house; host or cells: E. coli
Outline: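 Displacement format with mutant KRAS, biotinylated KRpep-2d analogue or RAF1-RBD (5-20 nM each) at pH 7.5 with 5 mM MgCl2.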

[2] = target: T2, G12V-mutant human KRAS (amino acid residues 1-188) (Homo sapiens, UniProt P01116, G12V); test: KRAS Binding Competition Assay (AlphaScreen; biotinylated KRpep-2d analogue), G12V; details: geometric mean, read-out: KRAS GMean IC50 (uM) MUTATION: G12V
T2 construct: G12V-mutant human KRAS (amino acid residues 1-188) with FLAG tag was purified from E. coli; made in house; host or cells: E. coli

SMILES | IC50 [1] [µM] | IC50 [2] [µM]
CN1CCC[C@H]1COc1nc(N2C[C@H]3CC[C@@H](C2)N3)c2ccc(-c3c[nH]c4ncccc34)cc2n1 [P-0175, 4-((1R,5S)-3,8-diazabicyclo[3.2.1]octan-3-yl)-2-(((S)-1-methylpyrrolidin-2-yl)methoxy)-7-(1H-pyrrolo[2,3-b]pyridin-3-yl)quinazoline] | 100 to 1000 | 10 to 100
Cc1n[nH]c(C)c1-c1ccc2c(N3C[C@H]4CC[C@@H](C3)N4)nc(OC[C@@H]3CCCN3C)nc2c1 [P-0176, 4-((1R,5S)-3,8-diazabicyclo[3.2.1]octan-3-yl)-7-(3,5-dimethyl-1H-pyrazol-4-yl)-2-(((S)-1-methylpyrrolidin-2-yl)methoxy)quinazoline] | 100 to 1000 | 100 to 1000
CN1CCC[C@H]1COc1nc(N2C[C@H]3CC[C@@H](C2)N3)c2ccc(-c3ccc(Cl)c(N)c3)cc2n1 [P-0177, 5-(4-((1R,5S)-3,8-diazabicyclo[3.2.1]octan-3-yl)-2-(((S)-1-methylpyrrolidin-2-yl)methoxy)quinazolin-7-yl)-2-chloroaniline] | 10 to 100 | 10 to 100
CN1CCC[C@H]1COc1nc(N2C[C@H]3CC[C@@H](C2)N3)c2ccc(-c3cnn4ccccc34)cc2n1 [P-0178, 4-((1R,5S)-3,8-diazabicyclo[3.2.1]octan-3-yl)-2-(((S)-1-methylpyrrolidin-2-yl)methoxy)-7-(pyrazolo[1,5-a]pyridin-3-yl)quinazoline] | 100 to 1000 | 100 to 1000
CN1CCC[C@H]1COc1nc(N2C[C@H]3CC[C@@H](C2)N3)c2ccc(-c3cc(O)cc(C(F)(F)F)c3)cc2n1 [P-0179, 3-(4-((1R,5S)-3,8-diazabicyclo[3.2.1]octan-3-yl)-2-(((S)-1-methylpyrrolidin-2-yl)methoxy)quinazolin-7-yl)-5-(trifluoromethyl)phenol] | 10 to 100 | 100 to 1000
CN1CCC[C@H]1COc1nc(N2C[C@H]3CC[C@@H](C2)N3)c2ccc(-c3cnc(N)nc3C(F)(F)F)cc2n1 [P-0180, 5-(4-((1R,5S)-3,8-diazabicyclo[3.2.1]octan-3-yl)-2-(((S)-1-methylpyrrolidin-2-yl)methoxy)quinazolin-7-yl)-4-(trifluoromethyl)pyrimidin-2-amine] | 10 to 100 | 100 to 1000
CN1CCC[C@H]1COc1nc(N2C[C@H]3CC[C@@H](C2)N3)c2ccc(-c3ccc4oc(N)nc4c3)cc2n1 [P-0181, 5-(4-((1R,5S)-3,8-diazabicyclo[3.2.1]octan-3-yl)-2-(((S)-1-methylpyrrolidin-2-yl)methoxy)quinazolin-7-yl)benzo[d]oxazol-2-amine] | 10 to 100 | 10 to 100
CN1CCC[C@H]1COc1nc(N2C[C@H]3CC[C@@H](C2)N3)c2ccc(-c3ccc(CO)s3)cc2n1 [P-0182, (5-(4-((1R,5S)-3,8-diazabicyclo[3.2.1]octan-3-yl)-2-(((S)-1-methylpyrrolidin-2-yl)methoxy)quinazolin-7-yl)thiophen-2-yl)methanol] | 100 to 1000 | 100 to 1000
Cc1n[nH]c2cc(-c3ccc4c(N5C[C@H]6CC[C@@H](C5)N6)nc(OC[C@@H]5CCCN5C)nc4c3)ccc12 [P-0183, 4-((1R,5S)-3,8-diazabicyclo[3.2.1]octan-3-yl)-7-(3-methyl-1H-indazol-6-yl)-2-(((S)-1-methylpyrrolidin-2-yl)methoxy)quinazoline] | 100 to 1000 | 10 to 100
CN1CCC[C@H]1COc1nc(N2C[C@H]3CC[C@@H](C2)N3)c2ccc(-c3c(F)ccc4[nH]ccc34)cc2n1 [P-0184, 4-((1R,5S)-3,8-diazabicyclo[3.2.1]octan-3-yl)-7-(5-fluoro-1H-indol-4-yl)-2-(((S)-1-methylpyrrolidin-2-yl)methoxy)quinazoline] | 10 to 100 | 100 to 1000
CN1C2CCC1(COc1nc(N3C[C@H]4CC[C@@H](C3)N4)c3ccc(-c4cc(O)cc5ccccc45)cc3n1)CC2 [P-0185, 4-(4-((1R,5S)-3,8-diazabicyclo[3.2.1]octan-3-yl)-2-((7-methyl-7-azabicyclo[2.2.1]heptan-1-yl)methoxy)quinazolin-7-yl)naphthalen-2-ol] | 0.0001 to 10 | 10 to 100
CN1CCN(CCCC(=O)N2[C@@H]3CC[C@H]2CN(c2nc(OCC45CCCN4CCC5)nc4c(F)c(-c5cc(O)cc6ccccc56)ccc24)C3)CC1 [P-0187, 1-((1R,5S)-3-(8-fluoro-7-(3-hydroxynaphthalen-1-yl)-2-((tetrahydro-1H-pyrrolizin-7a(5H)-yl)methoxy)quinazolin-4-yl)-3,8-diazabicyclo[3.2.1]octan-8-yl)-4-(4-methylpiperazin-1-yl)butan-1-one] | 0.0001 to 10 | 0.0001 to 10
O=C(Cc1c[nH]cn1)N1[C@@H]2CC[C@H]1CN(c1nc(OCC34CCCN3CCC4)nc3c(F)c(-c4cc(O)cc5ccccc45)ccc13)C2 [P-0188, 1-((1R,5S)-3-(8-fluoro-7-(3-hydroxynaphthalen-1-yl)-2-((tetrahydro-1H-pyrrolizin-7a(5H)-yl)methoxy)quinazolin-4-yl)-3,8-diazabicyclo[3.2.1]octan-8-yl)-2-(1H-imidazol-4-yl)ethan-1-one] | 0.0001 to 10 | 0.0001 to 10
CN1CCC[C@H]1COc1nc(N2[C@@H]3CC[C@H]2CN(C(=O)CC2CCNCC2)C3)c2ccc(-c3cc(O)cc4ccccc34)cc2n1 [P-0189, 1-((1R,5S)-8-(7-(3-hydroxynaphthalen-1-yl)-2-(((S)-1-methylpyrrolidin-2-yl)methoxy)quinazolin-4-yl)-3,8-diazabicyclo[3.2.1]octan-3-yl)-2-(piperidin-4-yl)ethan-1-one] | 10 to 100 | 10 to 100

Next, values leading:

IC50 [1] [µM] | IC50 [2] [µM] | SMILES
10 to 100 | 10 to 100 | CN1CCC[C@H]1COc1nc(N2[C@@H]3CC[C@H]2CN(C(=O)CC2CCCNC2)C3)c2ccc(-c3cc(O)cc4ccccc34)cc2n1 (stereo partly drawn) [P-0190, 1-((1R,5S)-8-(7-(3-hydroxynaphthalen-1-yl)-2-(((S)-1-methylpyrrolidin-2-yl)methoxy)quinazolin-4-yl)-3,8-diazabicyclo[3.2.1]octan-3-yl)-2-(piperidin-3-yl)ethan-1-one]
10 to 100 | 10 to 100 | CN1CCC[C@H]1COc1nc(N2[C@@H]3CC[C@H]2CN(C(=O)CCC2CCCCN2)C3)c2ccc(-c3cc(O)cc4ccccc34)cc2n1 (stereo partly drawn) [P-0191, 1-((1R,5S)-8-(7-(3-hydroxynaphthalen-1-yl)-2-(((S)-1-methylpyrrolidin-2-yl)methoxy)quinazolin-4-yl)-3,8-diazabicyclo[3.2.1]octan-3-yl)-3-(piperidin-2-yl)propan-1-one]
10 to 100 | 10 to 100 | CN1CCC[C@H]1COc1nc(N2[C@@H]3CC[C@H]2CN(C(=O)CCC2CCCNC2)C3)c2ccc(-c3cc(O)cc4ccccc34)cc2n1 (stereo partly drawn) [P-0192, 1-((1R,5S)-8-(7-(3-hydroxynaphthalen-1-yl)-2-(((S)-1-methylpyrrolidin-2-yl)methoxy)quinazolin-4-yl)-3,8-diazabicyclo[3.2.1]octan-3-yl)-3-(piperidin-3-yl)propan-1-one]
10 to 100 | 10 to 100 | CN1CCC[C@H]1COc1nc(N2[C@@H]3CC[C@H]2CN(C(=O)CCC2CCNCC2)C3)c2ccc(-c3cc(O)cc4ccccc34)cc2n1 [P-0193, 1-((1R,5S)-8-(7-(3-hydroxynaphthalen-1-yl)-2-(((S)-1-methylpyrrolidin-2-yl)methoxy)quinazolin-4-yl)-3,8-diazabicyclo[3.2.1]octan-3-yl)-3-(piperidin-4-yl)propan-1-one]
10 to 100 | 10 to 100 | CN1CCC[C@H]1COc1nc(N2[C@@H]3CC[C@H]2CN(C(=O)CCC2CNCCN2)C3)c2ccc(-c3cc(O)cc4ccccc34)cc2n1 (stereo partly drawn) [P-0194, 1-((1R,5S)-8-(7-(3-hydroxynaphthalen-1-yl)-2-(((S)-1-methylpyrrolidin-2-yl)methoxy)quinazolin-4-yl)-3,8-diazabicyclo[3.2.1]octan-3-yl)-3-(piperazin-2-yl)propan-1-one]
10 to 100 | 10 to 100 | CN1CCC[C@H]1COc1nc(N2[C@@H]3CC[C@H]2CN(C(=O)CCCn2ccnc2)C3)c2ccc(-c3cc(O)cc4ccccc34)cc2n1 [P-0195, 1-((1R,5S)-8-(7-(3-hydroxynaphthalen-1-yl)-2-(((S)-1-methylpyrrolidin-2-yl)methoxy)quinazolin-4-yl)-3,8-diazabicyclo[3.2.1]octan-3-yl)-4-(1H-imidazol-1-yl)butan-1-one]
10 to 100 | 10 to 100 | CN1CCC[C@H]1COc1nc(N2[C@@H]3CC[C@H]2CN(C(=O)CC2CCCC2O)C3)c2ccc(-c3cc(O)cc4ccccc34)cc2n1 (stereo partly drawn) [P-0196, 2-(2-hydroxycyclopentyl)-1-((1R,5S)-8-(7-(3-hydroxynaphthalen-1-yl)-2-(((S)-1-methylpyrrolidin-2-yl)methoxy)quinazolin-4-yl)-3,8-diazabicyclo[3.2.1]octan-3-yl)ethan-1-one]
0.0001 to 10 | 10 to 100 | N#Cc1ccc(CCc2nc(N3[C@@H]4CC[C@H]3CNC4)c3ccc(-c4cc(O)cc5ccccc45)cc3n2)cc1 [P-0197, 4-(2-(4-((1R,5S)-3,8-diazabicyclo[3.2.1]octan-8-yl)-7-(3-hydroxynaphthalen-1-yl)quinazolin-2-yl)ethyl)benzonitrile]
0.0001 to 10 | 10 to 100 | O=C(O)CCc1nc(N2[C@@H]3CC[C@H]2CNC3)c2ccc(-c3cc(O)cc4ccccc34)cc2n1 [P-0198, 3-(4-((1R,5S)-3,8-diazabicyclo[3.2.1]octan-8-yl)-7-(3-hydroxynaphthalen-1-yl)quinazolin-2-yl)propanoic acid]
